From patent US20140113093A1, “Polymers with reduced estrogenic activity” (SOLVAY SPECIALITY POLYMERS USA, LLC, priority 2011, published 2014)

Target: T1, Estrogen receptor α (ERα) (Homo sapiens, UniProt P03372)
T1 construct: host or cells: ER-α-UAS-bla GripTite 293 cells
T1 sequence (P03372 311-547 limits assumed): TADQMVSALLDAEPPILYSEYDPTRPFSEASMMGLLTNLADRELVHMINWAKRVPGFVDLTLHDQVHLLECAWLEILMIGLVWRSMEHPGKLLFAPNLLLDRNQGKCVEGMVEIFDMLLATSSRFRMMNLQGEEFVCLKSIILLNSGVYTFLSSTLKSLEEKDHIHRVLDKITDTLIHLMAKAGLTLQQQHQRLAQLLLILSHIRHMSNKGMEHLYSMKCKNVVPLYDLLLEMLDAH
Assay: GeneBLAzer Cell-Based Nuclear Receptor Assay (beta-lactamase reporter), EC50 response value to ERα
Conditions: ER-α-UAS-bla GripTite 293 cells, agonist mode, 16-24 hours at 37° C., monomers tested at 7 to 250000 nM
Protocol: The plate is incubated for 16-24 hours at 37° C./5% CO2 in a humidified incubator. […] The plate is read on a fluorescence plate reader.
The following equations are used for each set of data points: […]

O=P(c1ccccc1)(c1ccc(Oc2ccc(O)cc2)cc1)c1ccc(Oc2ccc(O)cc2)cc1 [Example 5 (HPPPO), Bis-4-hydroxyphenoxyphenylphosphine oxide] and O=S(=O)(c1ccc(Oc2ccc(O)cc2)cc1)c1ccc(Oc2ccc(O)cc2)cc1 [Example 3 (HBS), Bis-4-hydroxyphenoxydiphenylsulfone] cannot be ordered by EC50: greater than 250 µM for the first, greater than 79.1 µM for the second.

Compared with CC(C)(c1ccc(O)cc1)c1ccc(C(C)(C)c2ccc(O)cc2)cc1 [BisP, α,α′-Bis(4-hydroxyphenyl)-1,4-diisopropylbenzene, reference compound], O=S(=O)(c1ccc(O)cc1)c1ccc(O)cc1 [Bisphenol S, 4,4′-dihydroxy-diphenylsulfone, reference compound] is lower in EC50: greater than 25 µM for the first, 4.14 µM for the second.

In the case of O=S(=O)(c1ccc(O)cc1)c1ccc(-c2ccc(S(=O)(=O)c3ccc(O)cc3)cc2)cc1 [Example 1 (HPS), Hydroxysulfonebiphenyl], the EC50 is reported as greater than 79.1 µM.
